The values that follow come from US12466812B2, “Pyridinyltriazine derivative having protein kinase inhibitory activity, and pharmaceutical composition for preventing, ameliorating, or treating cancer comprising same” (KOREA INSTITUTE OF SCIENCE AND TECHNOLOGY, priority 2019, dated 2025).

Molecules are shown by their SMILES.

Data set [1] has as its system RT112 bladder cancer cell line. Conditions: J. Med. Chem. 2011, 54:7066-7083; cited from earlier work.
The target of the next data set is FGFR3 (Homo sapiens, UniProt P22607). Conditions: J. Med. Chem. 2011, 54:7066-7083; cited from earlier work.
Data set [2] in a line: Microsomal stability. Type of data set: in vitro ADME. To be noted: rat liver microsomes, based on sample taken at 0 minutes. Background: Liver microsomes are vesicles of endoplasmic reticulum, rich in cytochrome P450 enzymes.
A short description of data set [3]: Microsomal stability. Type of data set: in vitro ADME. To be noted: mouse liver microsomes, based on sample taken at 0 minutes.
The nature of data set [4]: Microsomal stability. Format: in vitro ADME. To be noted: dog liver microsomes, based on sample taken at 0 minutes.
The subject of data set [5] is AN3-CA, a uterine cancer cell line. In words: Inhibitory activity against cancer cell proliferation (Experimental Example 2). Type of data set: cell-based. To be noted: Homo sapiens, Table 2.
Data set [6] in a line: Microsomal stability. Conditions: human liver microsomes, based on sample taken at 0 minutes. Type of data set: in vitro ADME.
For another data set, the target named is T1, CYP1A2 (Homo sapiens, UniProt P05177).
T1 sequence (P05177 1-516): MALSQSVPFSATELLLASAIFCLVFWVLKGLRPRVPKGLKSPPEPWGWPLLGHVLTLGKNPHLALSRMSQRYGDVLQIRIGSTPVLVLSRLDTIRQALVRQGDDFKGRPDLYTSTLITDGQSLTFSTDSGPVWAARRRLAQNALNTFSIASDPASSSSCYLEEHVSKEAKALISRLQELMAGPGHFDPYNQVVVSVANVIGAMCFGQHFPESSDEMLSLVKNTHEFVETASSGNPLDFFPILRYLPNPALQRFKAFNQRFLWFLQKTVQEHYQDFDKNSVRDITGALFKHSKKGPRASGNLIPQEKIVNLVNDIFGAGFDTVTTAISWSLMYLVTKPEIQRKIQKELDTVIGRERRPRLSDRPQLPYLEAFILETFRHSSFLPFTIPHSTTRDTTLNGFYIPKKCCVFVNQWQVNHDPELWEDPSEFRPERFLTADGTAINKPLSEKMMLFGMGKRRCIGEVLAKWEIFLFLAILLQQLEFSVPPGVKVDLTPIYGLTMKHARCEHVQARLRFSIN
In words: Inhibitory activity against CYP metabolic enzyme. Type of data set: in vitro ADME. As for the experimental part:
(§1) In order to determine whether or not there is a possibility that the compounds synthesized in Examples 1, 22, and 24 of the present invention can cause side effects of drug interaction, the rate (%) of inhibition against 5 major metabolic enzymes (CYP1A2, CYP2C9, CYP2C19, CYP2D6, and CYP3A4) among CYPs (cytochrome P450), which are enzymes involved in oxidative metabolism of drugs, was measured. […] That is, it can be seen that the compound of the present invention has a low possibility of causing side effects of drug interaction.

The next data set addresses CYP3A4 (Homo sapiens, UniProt P08684). Kind of data set: Inhibitory activity against CYP metabolic enzyme. Format: in vitro ADME. On the procedure: as §1
The target in the next data set is CYP2C19 (Homo sapiens, UniProt P33261). Kind of data set: Inhibitory activity against CYP metabolic enzyme. Format: in vitro ADME. As for the experimental part:
as §1

The target of another data set is CYP2C9 (Homo sapiens, UniProt P11712). In words: Inhibitory activity against CYP metabolic enzyme. Type of data set: in vitro ADME. As for the experimental part:
as §1

The target in another data set is CYP2D6 (Homo sapiens, UniProt P10635). Kind of data set: Inhibitory activity against CYP metabolic enzyme. Type of data set: in vitro ADME. On the procedure:
as §1

For a further data set, the target named is FGFR3 mutant (K650M) (Homo sapiens, UniProt P22607, K650M). Kind of data set: Pan-FGFR mutant enzymatic activity. To be noted: mutant enzyme. Format: biochemical. As for the experimental part:
(§2) The inhibitory activity against pan-FGFR mutants of the compounds synthesized in Examples 1, 8, 13, 22, and 24 was measured, the inhibitory activity on each of enzymatic activity and cellular activity was evaluated, and the results are shown in Tables 3 and 4 below.

A further data set concerns the target FGFR2 mutant (N549H) (Homo sapiens, UniProt P21802, N549H). In words: Pan-FGFR mutant enzymatic activity. Type of data set: biochemical. To be noted: mutant enzyme. On the procedure: as §2
The next data set addresses FGFR3 mutant (K650E) (Homo sapiens, UniProt P22607, K650E). In words: Pan-FGFR mutant enzymatic activity. Type of data set: biochemical. To be noted: mutant enzyme. On the procedure:
as §2

Another data set concerns the target FGFR3 mutant (V555M) (Homo sapiens, UniProt P22607, V555M). Kind of data set: Pan-FGFR mutant enzymatic activity. Format: biochemical. Conditions: mutant enzyme. As for the experimental part:
as §2

In another data set the target is FGFR2 mutant (V564F) (Homo sapiens, UniProt P21802, V564F). In words: Pan-FGFR mutant enzymatic activity. Format: biochemical. To be noted: mutant enzyme. As for the experimental part:
as §2

Data set [7] relates to KMS-11 (myeloma cell line). Kind of data set: Pan-FGFR mutant cellular activity. Type of data set: cell-based. Conditions: Homo sapiens, Table 4. On the procedure: as §2
Data set [8] relates to J82 (bladder cancer cell line). Kind of data set: Pan-FGFR mutant cellular activity. Type of data set: cell-based. To be noted: Table 4. As for the experimental part: as §2
Data set [9] concerns UMUC3 (bladder cancer cell line). In words: Pan-FGFR mutant cellular activity. Type of data set: cell-based. To be noted: Homo sapiens, Table 4. As for the experimental part: as §2
The next data set has as its system AN3-CA. Kind of data set: Pan-FGFR mutant cellular activity. Format: cell-based. Conditions: Homo sapiens, mutant cell, Table 4, read-out: GI50, AN3-CA (breast cancer cell line). As for the experimental part: as §2

FGFR2 mutant (V564F), sequence (P21802 22-821 V564F): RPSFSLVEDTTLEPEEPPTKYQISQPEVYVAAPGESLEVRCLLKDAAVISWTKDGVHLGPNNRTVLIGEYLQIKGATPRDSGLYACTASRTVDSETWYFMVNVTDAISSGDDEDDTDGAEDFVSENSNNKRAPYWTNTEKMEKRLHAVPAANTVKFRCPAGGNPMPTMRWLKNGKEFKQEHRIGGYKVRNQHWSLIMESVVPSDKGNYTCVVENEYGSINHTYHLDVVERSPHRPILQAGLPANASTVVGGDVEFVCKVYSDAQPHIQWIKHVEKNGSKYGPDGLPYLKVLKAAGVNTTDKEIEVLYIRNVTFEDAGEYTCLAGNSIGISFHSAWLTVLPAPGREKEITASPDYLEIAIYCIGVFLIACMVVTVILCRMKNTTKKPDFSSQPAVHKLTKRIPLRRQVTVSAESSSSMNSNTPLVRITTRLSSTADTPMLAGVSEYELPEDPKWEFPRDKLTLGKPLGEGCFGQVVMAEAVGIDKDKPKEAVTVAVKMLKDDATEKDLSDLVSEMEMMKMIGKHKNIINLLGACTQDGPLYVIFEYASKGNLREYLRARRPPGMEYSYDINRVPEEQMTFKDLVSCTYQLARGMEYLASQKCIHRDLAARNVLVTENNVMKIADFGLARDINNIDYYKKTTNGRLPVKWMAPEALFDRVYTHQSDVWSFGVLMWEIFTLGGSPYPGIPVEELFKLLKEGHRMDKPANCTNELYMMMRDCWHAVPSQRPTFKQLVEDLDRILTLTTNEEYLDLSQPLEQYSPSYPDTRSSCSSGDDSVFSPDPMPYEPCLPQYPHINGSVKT
CYP2D6, sequence (P10635 whole entry): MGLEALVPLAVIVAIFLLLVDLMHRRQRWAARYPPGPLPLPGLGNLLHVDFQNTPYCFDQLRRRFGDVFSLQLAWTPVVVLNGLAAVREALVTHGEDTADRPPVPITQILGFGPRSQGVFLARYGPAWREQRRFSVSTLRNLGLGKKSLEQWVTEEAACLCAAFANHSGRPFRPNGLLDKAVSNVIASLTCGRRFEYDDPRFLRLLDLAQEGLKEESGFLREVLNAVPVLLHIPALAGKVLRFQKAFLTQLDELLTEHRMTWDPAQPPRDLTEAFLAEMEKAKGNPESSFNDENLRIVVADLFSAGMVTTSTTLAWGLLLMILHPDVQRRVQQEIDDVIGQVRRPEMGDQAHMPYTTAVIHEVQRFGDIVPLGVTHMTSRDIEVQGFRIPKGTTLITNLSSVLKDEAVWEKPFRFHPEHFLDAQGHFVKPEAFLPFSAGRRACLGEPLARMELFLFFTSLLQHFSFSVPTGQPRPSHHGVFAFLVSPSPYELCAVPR
FGFR3 mutant (V555M), sequence (P22607 23-806 V555M): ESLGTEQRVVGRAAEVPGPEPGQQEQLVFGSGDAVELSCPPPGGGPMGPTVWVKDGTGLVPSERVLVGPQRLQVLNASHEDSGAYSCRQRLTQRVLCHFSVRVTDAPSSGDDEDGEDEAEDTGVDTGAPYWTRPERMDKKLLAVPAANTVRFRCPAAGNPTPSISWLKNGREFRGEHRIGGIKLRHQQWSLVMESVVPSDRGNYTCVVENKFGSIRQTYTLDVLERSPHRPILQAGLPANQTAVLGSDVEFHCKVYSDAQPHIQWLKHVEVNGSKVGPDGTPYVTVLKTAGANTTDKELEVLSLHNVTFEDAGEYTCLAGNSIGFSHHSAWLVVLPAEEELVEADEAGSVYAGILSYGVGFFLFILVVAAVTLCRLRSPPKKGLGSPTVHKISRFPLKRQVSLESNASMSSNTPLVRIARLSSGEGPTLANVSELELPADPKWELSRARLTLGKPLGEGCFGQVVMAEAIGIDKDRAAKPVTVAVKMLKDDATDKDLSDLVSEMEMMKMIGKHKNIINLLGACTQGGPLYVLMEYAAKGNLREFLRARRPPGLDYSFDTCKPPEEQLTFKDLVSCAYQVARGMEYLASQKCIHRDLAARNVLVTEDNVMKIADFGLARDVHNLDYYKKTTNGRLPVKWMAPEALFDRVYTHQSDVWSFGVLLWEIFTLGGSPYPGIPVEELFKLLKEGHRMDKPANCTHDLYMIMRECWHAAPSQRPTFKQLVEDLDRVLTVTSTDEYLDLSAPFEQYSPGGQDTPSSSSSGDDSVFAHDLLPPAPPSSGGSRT
CYP3A4, sequence (P08684 whole entry): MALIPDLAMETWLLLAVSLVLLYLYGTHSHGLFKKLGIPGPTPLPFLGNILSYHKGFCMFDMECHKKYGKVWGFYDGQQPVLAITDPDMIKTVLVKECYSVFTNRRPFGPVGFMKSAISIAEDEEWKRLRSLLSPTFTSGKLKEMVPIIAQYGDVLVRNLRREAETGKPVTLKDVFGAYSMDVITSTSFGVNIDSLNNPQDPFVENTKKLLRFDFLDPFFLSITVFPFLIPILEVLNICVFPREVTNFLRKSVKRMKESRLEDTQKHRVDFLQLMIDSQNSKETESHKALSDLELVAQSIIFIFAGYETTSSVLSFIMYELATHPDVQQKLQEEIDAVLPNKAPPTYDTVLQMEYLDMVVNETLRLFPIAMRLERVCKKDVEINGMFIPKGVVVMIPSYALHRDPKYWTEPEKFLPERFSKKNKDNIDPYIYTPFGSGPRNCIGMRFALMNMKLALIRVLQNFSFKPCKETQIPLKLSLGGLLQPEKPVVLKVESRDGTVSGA
CYP2C19, sequence (P33261 whole entry): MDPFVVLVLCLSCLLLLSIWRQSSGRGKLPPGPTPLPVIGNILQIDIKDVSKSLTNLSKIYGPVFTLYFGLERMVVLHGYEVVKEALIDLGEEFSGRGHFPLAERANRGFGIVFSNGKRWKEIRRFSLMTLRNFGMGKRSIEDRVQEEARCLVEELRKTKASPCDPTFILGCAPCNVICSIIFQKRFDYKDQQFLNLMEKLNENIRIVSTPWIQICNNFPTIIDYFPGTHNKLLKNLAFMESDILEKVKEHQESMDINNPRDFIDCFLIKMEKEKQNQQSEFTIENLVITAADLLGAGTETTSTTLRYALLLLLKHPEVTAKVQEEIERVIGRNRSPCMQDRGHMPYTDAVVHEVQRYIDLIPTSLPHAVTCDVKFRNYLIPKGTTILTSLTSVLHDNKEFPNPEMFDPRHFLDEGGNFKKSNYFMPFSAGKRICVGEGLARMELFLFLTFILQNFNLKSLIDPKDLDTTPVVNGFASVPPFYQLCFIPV
FGFR3 mutant (K650M), sequence (P22607 23-806 K650M): as the sequence (P22607 23-806 V555M) above, with M533V, K628M counted along it
FGFR3 mutant (K650E), sequence (P22607 23-806 K650E): as the sequence (P22607 23-806 V555M) above, with M533V, K628E counted along it
CYP2C9, sequence (P11712 whole entry): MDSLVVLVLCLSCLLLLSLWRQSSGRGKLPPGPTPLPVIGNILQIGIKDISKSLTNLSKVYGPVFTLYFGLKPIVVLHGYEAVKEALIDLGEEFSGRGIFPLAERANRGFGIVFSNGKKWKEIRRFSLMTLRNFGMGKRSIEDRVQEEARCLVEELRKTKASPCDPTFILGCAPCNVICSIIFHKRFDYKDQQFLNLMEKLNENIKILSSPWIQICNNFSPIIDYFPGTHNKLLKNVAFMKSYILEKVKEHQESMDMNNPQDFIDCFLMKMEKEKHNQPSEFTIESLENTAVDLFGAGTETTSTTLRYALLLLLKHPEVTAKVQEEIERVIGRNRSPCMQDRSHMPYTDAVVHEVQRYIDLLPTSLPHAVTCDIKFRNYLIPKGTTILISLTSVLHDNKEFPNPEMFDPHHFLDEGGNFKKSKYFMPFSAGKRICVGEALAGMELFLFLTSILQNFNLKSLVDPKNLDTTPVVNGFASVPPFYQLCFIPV
FGFR3, sequence (P22607 23-806): as the sequence (P22607 23-806 V555M) above, with M533V counted along it
FGFR2 mutant (N549H), sequence (P21802 22-821 N549H): as the sequence (P21802 22-821 V564F) above, with N528H, F543V counted along it

`CCN1CCN(c2ccc(Nc3cc(N(C)C(=O)Nc4c(Cl)c(OC)cc(OC)c4Cl)ncn3)cc2)CC1` [3-(2,6-dichloro-3,5-dimethoxyphenyl)-1-6-[4-(4-ethyl-piperazin-1-yl)phenylamino]pyrimidine-4-yl-1-methyl urea]: in data set [1], the “anticancer activity against the RT112 bladder cancer cell line” value was “effective anticancer activity”. Besides, the “inhibitory activity against FGFR3” value at FGFR3 was “selective inhibitory activity”.
In general, GI50 refers to the concentration giving 50% growth inhibition. One may read the IC50 as the concentration at which inhibition is half-maximal. Higher therefore signals lower potency. Turning to `COc1cc(OC)c(Cl)c(Nc2ncccc2-c2ncnc(Nc3cnn(C4CCN(C(C)C)CC4)c3)n2)c1Cl` [Example 22], the “remaining (%) after reaction with the microsome, Rat” value in “Microsomal stability [2]” and in “Microsomal stability [2]” (listed as Compound No. 22) was 7.7% each time. Moreover, the “remaining (%) after reaction with the microsome, Mouse” value in “Microsomal stability [3]” and in the data set “Microsomal stability [3]” (listed as Compound No. 22) was 11.5% each time. Besides, the “remaining (%) after reaction with the microsome, Dog” value in “Microsomal stability [4]” and in the data set “Microsomal stability [4]” (listed as Compound No. 22) was 8.3% in each case. In addition, the 50% growth inhibitory concentration (GI50) (in [5]; in [7]; in data set [8]; in data set [9]; in the data set with AN3-CA) was under 1000 nM each time. In addition, the “remaining (%) after reaction with the microsome, Human” value in “Microsomal stability [6]” and in the data set “Microsomal stability [6]” (listed as Compound No. 22) was 21.8% each time. For the same compound, the “rate (%) of inhibition, CYP1A2” value on CYP1A2 is 75.9%. Also, at CYP3A4, the “rate (%) of inhibition, CYP3A4” value was found to be 17.6%. The “rate (%) of inhibition, CYP2C19” value on CYP2C19 is reported as 44.6%. The “rate (%) of inhibition, CYP2C9” value on CYP2C9 worked out at 79.1%. For the same compound, on CYP2D6, the “rate (%) of inhibition, CYP2D6” value is on record as 81.0%. For the same compound, the 50% inhibitory concentration (IC50) was under 100 nM at FGFR3 mutant (K650M); under 100 nM against FGFR2 mutant (N549H); under 100 nM on FGFR3 mutant (K650E); under 100 nM against FGFR3 mutant (V555M); 100 to 1000 nM at FGFR2 mutant (V564F).
